From patent publication EP1351977B1, “ANTIMICROBIAL PSEUDOPEPTIDES” (INSTITUT NATIONAL DE LA RECHERCHE AGRONOMIQUE (INRA), priority 2001, dated 2004)
Where two headings read alike, the source gives them in different places. Ends that are not written are not given here.

What was measured:
Assay type in all cases: cell-based
Serratia entomophila = experiment: Bacterial growth inhibition test in Petri dish (solid medium), MIC; settings: MIC extrapolated from inhibition diameter vs log10 concentration
Septoria tritici sp = experiment: Antifungal growth inhibition test in liquid medium
[1] = test system: Helminthosporium teres sp; experiment: Antifungal growth inhibition test in liquid medium
Escherichia coli CIP548 = experiment: Bacterial growth inhibition test in Petri dish (solid medium), MIC; settings: MIC extrapolated from inhibition diameter vs log10 concentration
Rhizoctonia solani myc = experiment: Antifungal growth inhibition test in liquid medium
Klebsiella pneumoniae = experiment: Bacterial growth inhibition test in Petri dish (solid medium), MIC; settings: MIC extrapolated from inhibition diameter vs log10 concentration
Alternaria brassicae = experiment: Antifungal growth inhibition test in liquid medium
Pseudomonas fluorescens = experiment: Bacterial growth inhibition test in Petri dish (solid medium), MIC; settings: MIC extrapolated from inhibition diameter vs log10 concentration
[2] = test system: Proteus vulgaris CIP58.60; experiment: as above; settings: MIC extrapolated from inhibition diameter vs log10 concentration
Botrytis cinerea myc = experiment: Antifungal growth inhibition test in liquid medium
Piricularia oryzae sp = test system: Piricularia oryzae sp
Bacillus megaterium = experiment: Bacterial growth inhibition test in Petri dish (solid medium), MIC; settings: MIC extrapolated from inhibition diameter vs log10 concentration
Botrytis cinerea sp = experiment: Antifungal growth inhibition test in liquid medium
Cladosporium myc = experiment: Antifungal growth inhibition test in liquid medium
Cladosporium sp = experiment: Antifungal growth inhibition test in liquid medium
Fusarium culmorum sp = experiment: Antifungal growth inhibition test in liquid medium
From the text: (§1) Les composés des pics 5, 7 et 8 de la figure 1 ont été testées vis-à-vis d'un ensemble de champignons phytopathogènes. Trois doses (10, 20, et 40 ppm) ont été employées pour chacun des composés.
(§2) L'activité antifongique a été détectée par un test d'inhibition de croissance en milieu liquide. Les spores des champignons à tester ont été mises en suspension dans un milieu de culture de type "Pomme de terre-Glucose". De préférence, on utilise 12 g de milieu Potato Dextrose Broth (Difco) pour 1 litre d'eau déminéralisée. Deux antibiotiques ont été rajoutés au milieu de culture: la tétracycline (concentration finale de 10 µg/ml) et la céfotaxime (100 µg/ml). On dépose 10 µl de chaque composé à tester dans des plaques de microtitration en présence de 90 µl de milieu de culture contenant les spores (à une concentration finale de 10^4 spores/ml). L'incubation a été réalisée en chambre humide à 30°C durant 48 heures. La croissance fongique a été observée au microscope photonique après 24 h et quantifiée après 48 heures par mesure de l'absorbance à 600 nm à l'aide d'un spectrophotomètre lecteur de plaque de microtitration. L'activité des composés contre les champignons phytopathogènes est exprimée par un pourcentage d'inhibition de croissance correspondant à 100 x (1 - absorbance avec produit/ absorbance du témoin sans produit), l'absorbance étant mesurée à 600 nm, 5 jours après le début de l'expérience.

Phytophthora myc = experiment: Antifungal growth inhibition test in liquid medium
From the text: as §1, §2

Salmonella sp. = experiment: Bacterial growth inhibition test in Petri dish (solid medium), MIC; settings: MIC extrapolated from inhibition diameter vs log10 concentration
Description: Deux tests ont été utilisés pour mesurer l'activité antibactérienne des pseudopeptides, un test d'inhibition de la croissance bactérienne en microplaques (de 96 puits) en milieu liquide et un test d'inhibition de la croissance bactérienne en boîte de Pétri en milieu solide. • * Test en microplaques: La culture bactérienne à tester est prélevée en phase exponentielle, puis diluée au 1/500^ème dans du milieu liquide TSB frais. Chaque puits de la microplaque est rempli avec 100 µl de suspension bactérienne diluée. Dans le premier puits, 100 µl de l'échantillon de pseudopeptide à tester est ajouté à la suspension bactérienne, puis l'échantillon est dilué de 2 en 2 en transférant d'un puits à l'autre 100 µl de suspension. La lecture de la microplaque se fait en mesurant la densité optique à […] (DO600nm) après 24h d'incubation à 28°C ou 37°C selon les bactéries cibles. Connaissant la concentration en pseudopeptide de l'échantillon de départ, ce test permet de déterminer la valeur de la CMI (Concentration Minimale d'Inhibition de la croissance bactérienne). Dans ce test, la CMI correspond à la concentration de l'échantillon pour lequel la DO600nm est inférieure à celle du témoin de culture. • * Test en boîte de Pétri: La culture bactérienne à tester est prélevée en phase exponentielle, puis incorporée à 10 ml d'une gélose dite "sous-couche" (Agarose 1% poids/vol; NaCl 100 mM; Trypcase 0.03 % poids/vol; Tampon phosphate 10 mM pH7.4) à raison de 2.10^5 bactéries/ml. Le mélange est coulé dans une boîte de Pétri ordinaire. 9 puits d'environ 10 µl de volume sont formés dans la "sous-couche" à l'aide d'un embout de pipette stérile de 10 ml. Ces puits sont remplis avec une série de dilutions des pseudopeptides à tester (concentration initiale 500 µg/ml, et dilution de deux en deux jusqu'à 1,95 µg/ml). Après diffusion à température ambiante pendant 2h, une gélose dite "sur-couche" (Agarose 1% wt/vol; Trypcase 6 % wt/vol; Tampon phosphate 10 mM pH7.4) est ajoutée sur la sous-couche à raison de 5 à 10 ml. Après solidification, l'ensemble est mis à incuber pendant une nuit. Le diamètre d'inhibition de la culture bactérienne autour de chaque puits est mesuré en mm; il existe une relation linéaire entre le diamètre d'inhibition et le log10 de la concentration en pseudopeptide qui permet de déterminer par extrapolation la valeur de la CMI.
Une première série de résultats a été obtenue en utilisant le test en boîte de Pétri vis-à-vis de bactéries non pathogènes issues de la collection de Travaux pratiques du laboratoire de Pathologie Comparée de l'Université de Montpellier (France). Dans cette série, les pseudopeptides des pics 5, 7, 8,10 et 11 ont été testés (Tableau 4).

Staphylococcus aureus = experiment: as above; settings: MIC extrapolated from inhibition diameter vs log10 concentration

Q: With “Composé 7: pseudopeptide du pic n° 7 de Xenorhabdus nematophilus F1; Famille 2: Lys Lys Lys Lys Arg Gly; 1080 Da; isomère de masse du pic 11 (KKKKRG; also: pseudopeptide modifications)” as the substance, how does the CMI (Serratia entomophila) read?
A: 60 µg/mL

Q: And the “pourcentage d'inhibition de croissance” value (Septoria tritici sp; 10 ppm)?
A: 0%

Q: And the “pourcentage d'inhibition de croissance” value (Septoria tritici sp; 20 ppm)?
A: 86%

Q: And the “pourcentage d'inhibition de croissance” value (Septoria tritici sp; 40 ppm)?
A: 89%

Q: What about the “pourcentage d'inhibition de croissance” value ([1]; 10 ppm) of the same substance?
A: 33%

Q: And the “pourcentage d'inhibition de croissance” value ([1]; 20 ppm)?
A: 47%

Q: What about the “pourcentage d'inhibition de croissance” value ([1]; 40 ppm) of the same substance?
A: 80%

Q: What about the CMI (Escherichia coli CIP548) of the same substance?
A: 15 µg/mL

Q: What about the “pourcentage d'inhibition de croissance” value (Rhizoctonia solani myc; 10 ppm) of the same substance?
A: 6%

Q: What about the “pourcentage d'inhibition de croissance” value (Rhizoctonia solani myc; 20 ppm) of the same substance?
A: 7%

Q: And the “pourcentage d'inhibition de croissance” value (Rhizoctonia solani myc; 40 ppm)?
A: 64%

Q: What about the CMI (Klebsiella pneumoniae) of the same substance?
A: 30 µg/mL

Q: And the “pourcentage d'inhibition de croissance” value (Alternaria brassicae; 10 ppm)?
A: 25%

Q: What about the “pourcentage d'inhibition de croissance” value (Alternaria brassicae; 20 ppm) of the same substance?
A: 47%

Q: What about the “pourcentage d'inhibition de croissance” value (Alternaria brassicae; 40 ppm) of the same substance?
A: 83%

Q: What about the CMI (Pseudomonas fluorescens) of the same substance?
A: 1,5 µg/ml

Q: What about the CMI [2] of the same substance?
A: 100 µg/mL

Q: And the “pourcentage d'inhibition de croissance” value (Botrytis cinerea myc; 10 ppm)?
A: 0%

Q: What about the “pourcentage d'inhibition de croissance” value (Botrytis cinerea myc; 20 ppm) of the same substance?
A: 6%

Q: And the “pourcentage d'inhibition de croissance” value (Botrytis cinerea myc; 40 ppm)?
A: 34%

Q: And the “pourcentage d'inhibition de croissance” value (Piricularia oryzae sp; 10 ppm)?
A: 12%

Q: What about the “pourcentage d'inhibition de croissance” value (Piricularia oryzae sp; 20 ppm) of the same substance?
A: 15%

Q: What about the “pourcentage d'inhibition de croissance” value (Piricularia oryzae sp; 40 ppm) of the same substance?
A: 21%

Q: And the CMI (Bacillus megaterium)?
A: 1,5 µg/ml

Q: What about the “pourcentage d'inhibition de croissance” value (Botrytis cinerea sp; 10 ppm) of the same substance?
A: 53%

Q: And the “pourcentage d'inhibition de croissance” value (Botrytis cinerea sp; 20 ppm)?
A: 12%

Q: And the “pourcentage d'inhibition de croissance” value (Botrytis cinerea sp; 40 ppm)?
A: 83%

Q: What about the “pourcentage d'inhibition de croissance” value (Cladosporium myc; 10 ppm) of the same substance?
A: 0%

Q: And the “pourcentage d'inhibition de croissance” value (Cladosporium myc; 20 ppm)?
A: 40%

Q: And the “pourcentage d'inhibition de croissance” value (Cladosporium myc; 40 ppm)?
A: 91%

Q: What about the “pourcentage d'inhibition de croissance” value (Cladosporium sp; 10 ppm) of the same substance?
A: 74%

Q: What about the “pourcentage d'inhibition de croissance” value (Cladosporium sp; 20 ppm) of the same substance?
A: 95%

Q: And the “pourcentage d'inhibition de croissance” value (Cladosporium sp; 40 ppm)?
A: 95%

Q: What about the “pourcentage d'inhibition de croissance” value (Fusarium culmorum sp; 10 ppm) of the same substance?
A: 66%

Q: What about the “pourcentage d'inhibition de croissance” value (Fusarium culmorum sp; 20 ppm) of the same substance?
A: 97%

Q: And the “pourcentage d'inhibition de croissance” value (Fusarium culmorum sp; 40 ppm)?
A: 97%

Q: What about the “pourcentage d'inhibition de croissance” value (Phytophthora myc; 10 ppm) of the same substance?
A: 71%

Q: And the “pourcentage d'inhibition de croissance” value (Phytophthora myc; 20 ppm)?
A: 81%

Q: What about the “pourcentage d'inhibition de croissance” value (Phytophthora myc; 40 ppm) of the same substance?
A: 78%

Q: What about the CMI (Salmonella sp.) of the same substance?
A: 15 µg/mL

Q: And the CMI (Staphylococcus aureus)?
A: 15 µg/mL
